Here are results for two compounds from US20240279278A1, “NMU RECEPTOR 2 AGONISTS” (Boehringer Ingelheim International GmbH, priority 2023, published 2024).

What is called Ki is a measure of affinity in units of concentration, obtained from inhibition or displacement. A high value points to weaker binding. As a reminder, the solubility is the dissolved amount per volume that the medium holds. Read a high solubility as much dissolved substance. What is called EC50 is the concentration giving half of the maximal effect.

The target of series [1] is T1, human NMUR1 receptor (Homo sapiens, UniProt Q9HB89).
T1 construct: host or cells: CHO-K1
T1 sequence (Q9HB89 24-426 limits assumed): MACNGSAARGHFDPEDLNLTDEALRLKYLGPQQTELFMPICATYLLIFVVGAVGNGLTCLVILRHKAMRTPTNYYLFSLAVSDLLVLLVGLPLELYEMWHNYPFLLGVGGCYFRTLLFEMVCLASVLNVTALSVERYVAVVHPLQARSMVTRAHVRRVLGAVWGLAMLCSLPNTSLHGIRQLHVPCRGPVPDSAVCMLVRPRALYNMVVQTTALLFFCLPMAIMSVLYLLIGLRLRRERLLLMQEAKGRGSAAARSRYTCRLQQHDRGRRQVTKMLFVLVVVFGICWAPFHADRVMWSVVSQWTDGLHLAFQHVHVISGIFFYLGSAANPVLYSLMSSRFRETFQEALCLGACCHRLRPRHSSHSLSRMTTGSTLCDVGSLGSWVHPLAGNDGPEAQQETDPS
The series is described as follows: Radioligand binding competition assay (RLB), human NMUR1 receptor binding (SPA, [125I]-Neuromedin U-25). Particulars: CHO-K1 hNMUR1 cell membranes, 4 hours at RT. The method in brief:
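SPA competition binding on CHO-K1 membranes stably expressing human NMUR1 (about 1.0 μg protein) on WGA-PVT beads, using about 30 pM [125I]-Neuromedin U-25. Incubation was 4 h at RT in 25 mM Hepes pH 7.0, 5 mM MgCl2, 1 mM CaCl2, saponin and 0.1% BSA. Non-specific binding was defined by 100 nM unlabeled hNMU-25; values assume one-site reversible equilibrium binding.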

Series [2] is described as follows: physchem. In kind it is physicochemical. The method in brief: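 Peptide TFA salts were shaken at a nominal 10 mg/mL in 0.1 M phosphate buffer, pH 6 to 8, for 2 h at room temperature and then filtered. Reversed-phase HPLC peak area was compared with a 1 mg/mL control in buffer or DMSO to give solubility. The pH of each sample was recorded.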
The target of series [3] is human NMUR2 receptor (Homo sapiens, UniProt Q9GZQ4). The series is described as follows: IP1 Gq HTRF assay, activation of human NMUR2 in buffer. It counts as cell-based. Further details: expressed in transfected cells; host or cells: CHO-K1. The conditions noted are these: CHO-K1 cells expressing human NMUR2, stimulation buffer with 0.1% BSA; read-out: EC50 (hNMUR2) buffer. The method in brief: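 IP-One HTRF competition (665/620 nm ratio) read after 1 h agonist exposure at 37 °C in pH 7.4 HEPES/HBSS stimulation buffer containing 50 mM LiCl, 0.1% BSA, 1% DMSO. Cells: CHO-K1 stably expressing human NMUR2 or NMUR1. EC50 by 4-parameter nonlinear regression of 8-point curves.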
(In TR-FRET formats the signal depends on donor and acceptor labels being close together.)

Converted amounts (≈) assume the structure as drawn. Residues, ends and D or L forms follow the SMILES beside them. Bounds are passed on as bounds.

human NMUR2 receptor, sequence (Q9GZQ4 whole entry): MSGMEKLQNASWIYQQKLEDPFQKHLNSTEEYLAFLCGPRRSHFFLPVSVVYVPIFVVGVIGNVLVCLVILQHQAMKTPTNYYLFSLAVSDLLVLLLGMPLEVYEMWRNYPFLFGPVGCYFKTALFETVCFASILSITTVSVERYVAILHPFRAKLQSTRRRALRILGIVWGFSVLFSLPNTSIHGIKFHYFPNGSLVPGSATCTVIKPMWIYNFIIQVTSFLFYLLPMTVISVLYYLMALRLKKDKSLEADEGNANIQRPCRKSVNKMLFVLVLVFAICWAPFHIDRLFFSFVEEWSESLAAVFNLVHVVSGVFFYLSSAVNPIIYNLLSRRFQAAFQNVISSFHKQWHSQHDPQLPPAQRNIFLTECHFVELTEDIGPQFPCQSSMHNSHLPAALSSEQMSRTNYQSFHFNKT

As for `CCCC[C@H](NC(=O)[C@H](CC(C)C)N(C)C(=O)[C@H](Cc1ccccc1)NC(=O)[C@H](Cc1ccc(O)cc1)NC(=O)CN1CCN(CCNC(=O)CN(C)C(=O)CN(C)C(=O)CN(C)C(=O)CN(C)C(=O)CN(C)C(=O)CN(C)C(=O)CN(C)C(=O)CN(C)C(=O)CN(C)C(=O)CN(C)C(=O)CN(C)C(=O)CN(C)C(=O)CN(C)C(=O)CN(C)C(=O)CN(C)C(=O)CC[C@H](NC(=O)CC[C@H](NC(=O)CC[C@H](NC(=O)CCCCCCCCCCCCCCCCCCC(=O)O)C(=O)O)C(=O)O)C(=O)O)CC1)C(=O)N[C@@H](CCN)C(=O)N1CCC[C@H]1C(=O)N[C@@H](CCCNC(=N)N)C(=O)NCC(N)=O` [Compound 42, C20DA-gGlu3-Sar15-AEPipAc-Tyr-Phe-NMeLeu-Nle-Dbu-Pro-Arg-Gly-NH2] (HELM PEPTIDE1{[O=C(O)CCCCCCCCCCCCCCCCCCC(=O)[*:2]].[gGlu].[gGlu].[gGlu].[Sar].[Sar].[Sar].[Sar].[Sar].[Sar].[Sar].[Sar].[Sar].[Sar].[Sar].[Sar].[Sar].[Sar].[Sar].[O=C(CN1CCN(CCN[*:1])CC1)[*:2]].Y.F.[meL].[Nle].[Dab].P.R.G.[am]}$$$$V2.0), the inhibition constant (Ki) in series [1] is more than 10000 nM. This compound came in with a solubility at 2 h in series [2] (pH 6.9) of 5300 µg/mL (≈ 1810 µM). For the same compound, the EC50 in series [3] was 3.2 nM.
For the compound `CCCC[C@H](NC(=O)[C@H](CC(C)C)N(C)C(=O)[C@H](Cc1ccccc1)NC(=O)[C@H](Cc1ccc(O)cc1)NC(=O)CN1CCN(CCNC(=O)CN(C)C(=O)CN(C)C(=O)CN(C)C(=O)CN(C)C(=O)CN(C)C(=O)CN(C)C(=O)CN(C)C(=O)CN(C)C(=O)CN(C)C(=O)CN(C)C(=O)CN(C)C(=O)CN(C)C(=O)CN(C)C(=O)CN(C)C(=O)CN(C)C(=O)CC[C@H](NC(=O)CC[C@H](NC(=O)CC[C@H](NC(=O)CCCCCCCCCCCCCCCCCCC(=O)O)C(=O)O)C(=O)O)C(=O)O)CC1)C(=O)N[C@@H](CCN)C(=O)N(C)[C@@H](C)C(=O)N[C@@H](CCCNC(=N)N)C(=O)NCC(N)=O` [Compound 43, C20DA-gGlu3-Sar15-AEPipAc-Tyr-Phe-NMeLeu-Nle-Dbu-NMeAla-Arg-Gly-NH2] (HELM PEPTIDE1{[O=C(O)CCCCCCCCCCCCCCCCCCC(=O)[*:2]].[gGlu].[gGlu].[gGlu].[Sar].[Sar].[Sar].[Sar].[Sar].[Sar].[Sar].[Sar].[Sar].[Sar].[Sar].[Sar].[Sar].[Sar].[Sar].[O=C(CN1CCN(CCN[*:1])CC1)[*:2]].Y.F.[meL].[Nle].[Dab].[meA].R.G.[am]}$$$$V2.0), in series [1], the Ki was more than 10000 nM. The concentration in solution in series [2] (pH 7) (solubility at 2 h) was 5600 µg/mL (≈ 1920 µM). For the same compound, the EC50 in series [3] stood at 3.9 nM.
